Data from EP0221208B1, “Hair growth promoting compositions” (MEIJI SEIKA KAISHA LTD., priority 1985, dated 1987).

Test system: Cynomolgus monkeys (Crab-eating macaques)
Test: Increase in temperature of the true skin after application to the skin surface (Test No. 2, net effect TE)
Type: in vivo
Details: Test (ii); ester as penetration agent at 0.5% (w/v) or more in gel-like tonic formulation containing Substance MH-548
Procedure: For the purpose of confirming whether Substance P or Substance P-related peptide of the formula (II) is actually effective to increase the blood flow in the capillary blood vessels at a local area of the skin, we have conducted some experiments where the hair growth promoting formulation of this invention was applied to a local skin surface of monkies, and an increase in the temperature of the underlying true skin tissue below the local skin surface was measured, which should be considered to be invoked by such increase in the local blood flow at the local skin site owing to the vasodilating activity of Substance P or Substance P-related peptide of the formula (II).
Cynomolgus monkeys (Crab-eating macaques) (female, body weight 3.8-4.2 kg) were fixed each in a device for fixing the monkey. The hair was cut off from an area in the upper arms of each monkey. A probe of a thermometer for measurement of the temperature in a deep place (a thermometer commercially available from Telmo Co., Ltd., Japan) was sent into the hair-removed areas of each upper arm of the monkey, and the temperature in the true skin layer of the left and right upper arms of the monkey was measured before the administration of the active peptide for promoting the hair growth was made. […]
Thus, the following parameters were evaluated. […]

Compound: CCOC(=O)CCCCCCCCC(=O)OCC [di-ethyl sebacate]
- effect of increasing the temperature in the true skin (TE): better effect than isopropyl myristate and di-isopropyl adipate
